Results on one molecule are retold here after paper PMC9767416, “Discovery of small molecule mechanistic target of rapamycin inhibitors as anti-aging and anti-cancer therapeutics” (Frontiers in Aging Neuroscience, 2022).

Data set [1] is described as follows: Shake-flask partition coefficient logP and distribution coefficient logD (pH 7.4). The format is physicochemical. As to the method:
Before the initiation of the intended experiments, all solvents were mutually saturated at 21°C. […] For saturation, large stock bottles containing n-octanol and 12% of water/buffer or water/buffer and 12% of n-octanol were shaken for 30 mins on a mechanical shaker and subsequently left to stand on the bench overnight until the phases separated. Approximately 0.50 mg of tested substance was added to the test vessels alongside with 1:1 volume ratio of saturated solvents (250 μL). The test vessels were shaken on the mechanical shaker (Multi Reax, Heidolph Instruments, Schwabach, Germany) for 30 min at the highest speed and then centrifuged for phase separation (16.873 × g for 5 min; Eppendorf 5418 Microcentrifuge, Prague, Czech Republic). Both organic and aqueous phases were sampled for LC-MS analysis. UHPLC-DAD-MS (UHPLC Infinity II 1290, detection by DAD and QqQ 6470; Agilent Technologies, CA, USA; separation on Arion C18 polar column 100 × 2.1 mm, 2.1 μm; Chromservis, Czech Republic) was used for determination of the exact concentration of tested substances. The total quantity of substance (in both phases) was used for logP/logD values calculation.

A short description of data set [2]: Solubility by nephelometry (water, buffer pH 7.4). The format is physicochemical. As for the experimental part: Compounds’ solubility was measured by the NEPHELOstar microplate instrument (BMG Labtech, Offenburg, Germany). Stock solutions were prepared by dissolving the tested compounds in ultrapure water or sodium phosphate buffer (pH 7.4) to obtain a concentration of 160 and 1,000 μg/mL. Each stock solution was sonicated at full power by Hielscher UP100H needle ultrasonic processor (Teltow, Germany) before loading into NEPHELOstar instrument injector A. Ultrapure water or sodium phosphate buffer was loaded into injector B. Compound was diluted in 48 wells in 0–160 or 0–1,000 μg/mL range and subsequently shook for 30 s. Each well was scanned with 80% laser power in matrix 3 × 3, beam width 2 mm, and obtained data were evaluated in GraphPad Prism 7.03 (GraphPad Software, San Diego, CA, USA) using segmental linear regression.

The next data set deals with BJ, RPE-1 and U373 cells. Put plainly: Crystal violet and resazurin proliferation screen in proliferating cells. The data set is classed as cell-based, human. As to conditions: RPE-1, U373, 0, 10, 50, 80, 100 μM, 24 h. As for the experimental part: All cell lines used in the study were obtained from the American Type Culture Collection (ATCC, Manassas, VA, USA). Human telomerase-immortalized retinal pigment epithelial cells RPE-1, glioblastoma U-87 MG, glioblastoma U373MG, glioblastoma T98G, glioblastoma A-172, breast adenocarcinoma MDA-MB-231, prostate carcinoma DU-145, and non-small cell lung cancer NCI-H1299 cell lines were cultured in Dulbecco’s modified Eagle’s medium (DMEM, Thermo Fisher Scientific, Waltham, MA, USA) with high glucose (4.5 g/L). Primary human skin BJ fibroblasts were cultured in Dulbecco’s modified Eagle’s medium (DMEM, Thermo Fisher Scientific, Waltham, MA, USA) with low glucose (1 g/L). Both cell culture media were supplemented with 10% fetal bovine serum (FBS, Gibco/Thermo Fisher Scientific) and non-essential amino acids (NEAA), 100 units/mL of penicillin, and 100 μg/mL of streptomycin (Sigma-Aldrich). Cells were kept at 37°C under a 5% CO2 atmosphere and 95% humidity.
Twenty-four hours before treatment, cells were plated in 96-well plates at densities of 2,850 cells per well for senescent RPE-1 (IR-RPE-1), 3,350 cells per well for proliferating RPE-1 and senescent BJ (DIS-BJ), and 5,000 cells per well for U373, T98, A172, U87, TMZ-U87, and proliferating BJ cells.
For the crystal violet assay, the cells were washed twice with 150 μL PBS and stained with 30 μL 0.5% (w/v) crystal violet in 20% methanol for 15 mins. Next, the plates were washed five times with ddH2O and left to dry overnight. Crystal violet was solubilized with 75 μL 0.2% Triton X-100 (Sigma) in PBS for 15 mins. The absorbance was read at 595 nm using a microplate reader (Envision, PerkinElmer, Waltham, MA, USA). The absorbance of crystal violet in treated cells was expressed as a percentage of absorbance in untreated cells. Each condition was measured at least in triplicate.
For the resazurin assay, 200 μL of the culture medium of each well was exchanged for 100 μL of resazurin (stock solution 30 mg/mL; Sigma, St. Louis, MO, USA) diluted 10 times in the culture medium, and the cells were incubated at 37°C for 1–3 h. Reading of fluorescence was done using a microplate reader (PerkinElmer, Waltham, MA, USA). Absolute values of fluorescence were related to the values of untreated cells. Each condition was measured at least in triplicate.
(In general: Resazurin is reduced to fluorescent resorufin, in cell work by metabolically active cells.)

The test system of another data set is RPE-1 cells. In words: Time-lapse microscopy (Incucyte) of proliferating RPE-1. As to conditions: higher concentrations 80–100 μM, 72 h. The format is cell-based, human. As to the method: (§1) For auto-monitoring of cells, Incucyte SX1 Live-Cell Analysis System (Sartorius, Göttingen, Germany), located in an incubator maintained at 37°C under a 5% CO2 atmosphere and 95% humidity, was utilized. The images (1,408 × 1,040 pixels at 1.24 microns/pixel) were acquired using a 10× objective lens in phase contrast, red fluorescence (excitation: 585 ± 20 nm, emission: 635 [625, 705] nm, acquisition time: 100 ms) channels every 60 min during 72 h. The first image was acquired 30 min after adding compounds. The images were processed to measure cell confluence using Incucyte software (version 2022A). Annexin V – Dy647, Apronex (diluted 1:1,000) was used for apoptotic cell staining.

The test system of another data set is U373 cells. In words: Time-lapse microscopy (Incucyte) of U373. The format is cell-based, human. As to conditions: 100 μM, 72 h. As to the method:
as §1

Molecules are shown by their SMILES. Values after ≈ are worked out from the molar mass of the structure shown. Where two headings read alike, the source gives them in different places.

The term logD denotes lipophilicity at a set pH, counting ionised and neutral species. Broadly, the logP is a log measure of how a compound divides between an organic and an aqueous phase. Usually solubility stands for the dissolved amount per volume that the medium holds. The low end stands for little dissolved substance, the high end for much dissolved substance. In the case of `O=C(O[C@@H]1Cc2c(O)cc(O)cc2O[C@@H]1c1ccc(O)c(O)c1)c1cc(O)c(O)c(O)c1` [Compound 7, epicatechin gallate], the log distribution coefficient (logD) in data set [1] (n-octanol/sodium phosphate buffer, pH 7.4, shake-flask, n-octanol/sodium phosphate buffer pH 7.4, read-out: logD) stood at 1.52 ± 0.01. In data set [1] (n-octanol/water, shake-flask, n-octanol/water, read-out: logP), the logP came to 1.48 ± 0.03. Further, the solubility kinetic at 30 s in data set [2] (aqueous buffer, sodium phosphate buffer pH 7.4, nephelometry, read-out: Sol. (buffer 7.4)) was > 1000 µg/mL; in data set [2] (ultrapure water, nephelometry, read-out: Sol. (H2O)), 789 µg/mL (≈ 1780 µM). Besides, the “logSpH 7.4” value in data set [2] (buffer pH 7.4) is >−2.65. Besides, the solubility at 30 s in data set [2] (medium not told apart (water and buffer pH 7.4)) is > 1000 µg/mL. Moreover, in data set [2] (water), the logSH2O is given as −2.75. For the same molecule, the “effect on the readout of crystal violet and resazurin assays” value in the data set with BJ, RPE-1 and U373 cells is “mild (although sometimes statistically significant) suppressive effect”. In addition, the “effect on cell proliferation (cell confluence, time-lapse)” value in the data set on RPE-1 cells and with U373 cells was “cytostatic effect” in each case.
